Results published in ChEMBL document CHEMBL1150528, “The heparin-like antiproliferative activity of sulfated tetrasaccharides is sensitive to structural variation” (Bioorg Med Chem Lett, 1995).

How the values were obtained:
Prothrombin = Prothrombin (Homo sapiens, UniProt P00734); test: Anticoagulant activity when interacted with Coagulation factor II
Coagulation factor X = Coagulation factor X (Homo sapiens, UniProt P00742); test: Anticoagulant activity when interacted with Coagulation factor X
Chain of Coagulation factor X (P00742 41-179 limits assumed): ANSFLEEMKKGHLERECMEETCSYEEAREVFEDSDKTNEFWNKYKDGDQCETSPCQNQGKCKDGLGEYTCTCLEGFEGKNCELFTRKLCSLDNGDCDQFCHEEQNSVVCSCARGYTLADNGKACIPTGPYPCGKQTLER
Chain of Coagulation factor X (P00742 235-488 limits assumed): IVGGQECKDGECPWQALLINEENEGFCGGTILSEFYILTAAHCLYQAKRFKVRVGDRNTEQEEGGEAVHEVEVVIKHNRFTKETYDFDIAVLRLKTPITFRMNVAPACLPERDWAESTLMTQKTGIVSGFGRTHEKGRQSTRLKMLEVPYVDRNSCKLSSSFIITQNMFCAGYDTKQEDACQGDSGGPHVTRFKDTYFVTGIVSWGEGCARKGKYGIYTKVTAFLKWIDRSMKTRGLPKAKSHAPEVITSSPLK

Rattus norvegicus = species: Rattus norvegicus; test: Relative inhibitory activity (ri) was measured in rat smooth muscle cells (SMC) at 100 ug/mL in comparison to that of Heparin; assay type: functional

SMILES | IC50 (Prothrombin) [µM] | IC50 (Coagulation factor X) [µM] | Relative inhibitory activity (Rattus norvegicus)
O=S(=O)([O-])OC[C@@H]1O[C@@H](O[C@@H]2[C@H](OS(=O)(=O)[O-])[C@@H](O[C@H]3[C@H](OS(=O)(=O)[O-])[C@H](OS(=O)(=O)[O-])[C@@H](O[C@H]4O[C@@H](COS(=O)(=O)[O-])[C@H](OS(=O)(=O)[O-])[C@H](OS(=O)(=O)[O-])[C@@H]4OS(=O)(=O)[O-])O[C@H]3COS(=O)(=O)[O-])OC[C@H]2OS(=O)(=O)[O-])[C@@H](OS(=O)(=O)[O-])[C@@H](OS(=O)(=O)[O-])[C@H]1OS(=O)(=O)[O-].[Na+].[Na+].[Na+].[Na+].[Na+].[Na+].[Na+].[Na+].[Na+].[Na+].[Na+].[Na+].[Na+] | > 509 | > 509 | 0.7
O=S(=O)(O)OC[C@@H]1O[C@H](O[C@H]2O[C@@H](COS(=O)(=O)O)[C@@H](O[C@@H]3O[C@@H](COS(=O)(=O)O)[C@@H](OS(=O)(=O)O)[C@H](OS(=O)(=O)O)[C@@H]3O[C@H]3O[C@@H](COS(=O)(=O)O)[C@H](OS(=O)(=O)O)[C@H](OS(=O)(=O)O)[C@@H]3OS(=O)(=O)O)[C@H](OS(=O)(=O)O)[C@@H]2OS(=O)(=O)O)[C@@H](OS(=O)(=O)O)[C@@H](OS(=O)(=O)O)[C@H]1OS(=O)(=O)O (stereo in doubt; 14) | > 477 | > 477 | –
O=S(=O)([O-])OC[C@@H]1O[C@@H](O[C@H]2O[C@@H](COS(=O)(=O)[O-])[C@@H](O[C@@H]3O[C@@H](CO[C@H]4O[C@@H](COS(=O)(=O)[O-])[C@H](OS(=O)(=O)[O-])[C@H](OS(=O)(=O)[O-])[C@@H]4OS(=O)(=O)[O-])[C@@H](OS(=O)(=O)[O-])[C@H](OS(=O)(=O)[O-])[C@@H]3OS(=O)(=O)[O-])[C@H](OS(=O)(=O)[O-])[C@@H]2OS(=O)(=O)[O-])[C@@H](OS(=O)(=O)[O-])[C@@H](OS(=O)(=O)[O-])[C@H]1OS(=O)(=O)[O-].[Na+].[Na+].[Na+].[Na+].[Na+].[Na+].[Na+].[Na+].[Na+].[Na+].[Na+].[Na+].[Na+].[Na+] (stereo in doubt; 12) | > 477 | > 477 | 0.6
C[C@@H]1O[C@@H](OC[C@@H]2O[C@@H](O[C@H]3[C@H](OS(=O)(=O)[O-])[C@H](OS(=O)(=O)[O-])[C@@H](O[C@H]4O[C@@H](COS(=O)(=O)[O-])[C@H](OS(=O)(=O)[O-])[C@H](OS(=O)(=O)[O-])[C@@H]4OS(=O)(=O)[O-])O[C@H]3COS(=O)(=O)[O-])[C@@H](OS(=O)(=O)[O-])[C@@H](OS(=O)(=O)[O-])[C@@H]2OS(=O)(=O)[O-])[C@H](OS(=O)(=O)[O-])[C@@H](OS(=O)(=O)[O-])[C@H]1OS(=O)(=O)[O-].[Na+].[Na+].[Na+].[Na+].[Na+].[Na+].[Na+].[Na+].[Na+].[Na+].[Na+].[Na+].[Na+] | > 506 | > 506 | 0.7
O=S(=O)([O-])OC[C@@H]1O[C@@H](O[C@H]2O[C@@H](COS(=O)(=O)[O-])[C@@H](O[C@@H]3O[C@@H](CO[C@H]4O[C@@H](COS(=O)(=O)[O-])[C@@H](OS(=O)(=O)[O-])[C@H](OS(=O)(=O)[O-])[C@@H]4OS(=O)(=O)[O-])[C@@H](OS(=O)(=O)[O-])[C@H](OS(=O)(=O)[O-])[C@@H]3OS(=O)(=O)[O-])[C@H](OS(=O)(=O)[O-])[C@@H]2OS(=O)(=O)[O-])[C@@H](OS(=O)(=O)[O-])[C@@H](OS(=O)(=O)[O-])[C@H]1OS(=O)(=O)[O-].[Na+].[Na+].[Na+].[Na+].[Na+].[Na+].[Na+].[Na+].[Na+].[Na+].[Na+].[Na+].[Na+].[Na+] | > 477 | > 477 | 0.9
O=S(=O)([O-])OC[C@@H]1O[C@H](O[C@H]2O[C@@H](COS(=O)(=O)[O-])[C@@H](O[C@@H]3O[C@@H](COS(=O)(=O)[O-])[C@@H](OS(=O)(=O)[O-])[C@H](OS(=O)(=O)[O-])[C@@H]3O[C@@H]3O[C@@H](COS(=O)(=O)[O-])[C@@H](OS(=O)(=O)[O-])[C@H](OS(=O)(=O)[O-])[C@@H]3OS(=O)(=O)[O-])[C@H](OS(=O)(=O)[O-])[C@@H]2OS(=O)(=O)[O-])[C@@H](OS(=O)(=O)[O-])[C@@H](OS(=O)(=O)[O-])[C@H]1OS(=O)(=O)[O-].[Na+].[Na+].[Na+].[Na+].[Na+].[Na+].[Na+].[Na+].[Na+].[Na+].[Na+].[Na+].[Na+].[Na+] | > 477 | > 477 | 0.3

Second part, led by results:

IC50 (Prothrombin) [µM] | IC50 (Coagulation factor X) [µM] | SMILES | Relative inhibitory activity (Rattus norvegicus)
> 477 | > 477 | O=S(=O)([O-])OC[C@@H]1O[C@@H](O[C@H]2O[C@@H](COS(=O)(=O)[O-])[C@@H](O[C@@H]3O[C@@H](CO[C@H]4O[C@@H](COS(=O)(=O)[O-])[C@H](OS(=O)(=O)[O-])[C@H](OS(=O)(=O)[O-])[C@@H]4OS(=O)(=O)[O-])[C@@H](OS(=O)(=O)[O-])[C@H](OS(=O)(=O)[O-])[C@@H]3OS(=O)(=O)[O-])[C@H](OS(=O)(=O)[O-])[C@@H]2OS(=O)(=O)[O-])[C@@H](OS(=O)(=O)[O-])[C@@H](OS(=O)(=O)[O-])[C@H]1OS(=O)(=O)[O-].[Na+].[Na+].[Na+].[Na+].[Na+].[Na+].[Na+].[Na+].[Na+].[Na+].[Na+].[Na+].[Na+].[Na+] (stereo in doubt; 9) | 0.8
> 477 | > 477 | O=S(=O)([O-])OC[C@@H]1O[C@H](O[C@H]2O[C@@H](COS(=O)(=O)[O-])[C@@H](O[C@@H]3O[C@@H](COS(=O)(=O)[O-])[C@@H](OS(=O)(=O)[O-])[C@H](OS(=O)(=O)[O-])[C@@H]3O[C@H]3O[C@@H](COS(=O)(=O)[O-])[C@H](OS(=O)(=O)[O-])[C@H](OS(=O)(=O)[O-])[C@@H]3OS(=O)(=O)[O-])[C@H](OS(=O)(=O)[O-])[C@@H]2OS(=O)(=O)[O-])[C@@H](OS(=O)(=O)[O-])[C@@H](OS(=O)(=O)[O-])[C@H]1OS(=O)(=O)[O-].[Na+].[Na+].[Na+].[Na+].[Na+].[Na+].[Na+].[Na+].[Na+].[Na+].[Na+].[Na+].[Na+].[Na+] (stereo in doubt; 2) | 0.9
> 477 | > 477 | O=S(=O)([O-])OC[C@@H]1O[C@H](O[C@H]2O[C@@H](COS(=O)(=O)[O-])[C@@H](O[C@@H]3O[C@@H](COS(=O)(=O)[O-])[C@@H](OS(=O)(=O)[O-])[C@H](OS(=O)(=O)[O-])[C@@H]3O[C@H]3O[C@@H](COS(=O)(=O)[O-])[C@H](OS(=O)(=O)[O-])[C@H](OS(=O)(=O)[O-])[C@@H]3OS(=O)(=O)[O-])[C@H](OS(=O)(=O)[O-])[C@@H]2OS(=O)(=O)[O-])[C@@H](OS(=O)(=O)[O-])[C@@H](OS(=O)(=O)[O-])[C@H]1OS(=O)(=O)[O-].[Na+].[Na+].[Na+].[Na+].[Na+].[Na+].[Na+].[Na+].[Na+].[Na+].[Na+].[Na+].[Na+].[Na+] (stereo in doubt; 13) | 0.5
